Measurements reported in the METLIN SMRT retention time set (Domingo-Almenara et al. 2019).

Assay: gradient 5% acetonitrile 3 min, to 50% in 2 min, to 85% in 15 min, held 3 min, 100 µL/min
Details: column: Zorbax Extend-C18 2.1 x 50 mm; eluents: water / acetonitrile, 0.1% formic acid
Summary of the method: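 In both positive and negative ionization mode, a quadrupole time-of-flight mass spectrometer coupled to HPLC analyzed pure standards run in mixtures of ~100 molecules. The Zorbax Extend-C18 column (2.1 × 50 mm, 1.8 μm) was operated at 100 μL/min with water and acetonitrile, each containing 0.1% formic acid. The dead volume was 40 μL and the dwell volume 900 μL. Retention time came from adduct peaks that were computationally picked and individually inspected by hand.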

Row | RP-LC retention time | SMILES
1 | 775 s | COc1ccc(CC(=O)Nc2nc(S(=O)(=O)Cc3ccccc3)ns2)cc1OC
2 | 823 s | Cc1ccc(S(=O)(=O)N2C[C@@H](F)C[C@H]2C(=O)N2CCCCC2)cc1C
3 | 697 s | Cn1c(=O)c2c(ncn2CC(=O)OCc2cc(-c3cccs3)on2)n(C)c1=O
4 | 1200 s | COc1ccccc1N1CCN(S(=O)(=O)c2cc(-c3cc(C(F)(F)F)on3)cs2)CC1
5 | 864 s | Cc1cc2[nH]c(C(=O)Nc3cc(F)c(F)cc3F)c(CN3CCCC3)c2s1
6 | 766 s | CNC(=O)N1CCCC(c2cccc(C(=O)NCc3cc(OC)ccc3OC)c2)C1 (stereo not given)
7 | 629 s | O=C(NCCn1nc(-c2ccco2)ccc1=O)c1ccc2c(c1)ncn2-c1ccccc1
8 | 784 s | O=C(C1CC1)N1CCCn2nc(-c3cccc(F)c3)cc2C1
9 | 962 s | Cc1ccc(NS(=O)(=O)c2ccc(-c3nnc(C4CCC4)o3)o2)cc1F
10 | 871 s | COc1ccc(NC(=O)C(C)C2CCN(C(=O)Nc3ccc(F)cc3)CC2)c(OC)c1 (stereo not given)
11 | 705 s | CCc1ccccc1NC(=O)NCC1CCOCC1
12 | 814 s | CN(Cc1ccccc1)C(=O)CCNc1c(-c2cccc(F)c2)nc2cnccn12
13 | 593 s | Cc1cc(N2CCN(C(=O)Cc3cccc(F)c3)CC2)nc2nncn12
14 | 562 s | O=S(=O)(NCC1CCN(Cc2cccs2)CC1)c1cc(F)ccc1F
15 | 894 s | COCC(=O)N(CC(=O)N1CCc2sccc2C1COc1cccc(OC)c1)CC(C)C (stereo not given)
16 | 735 s | Cc1ccc2nc(-c3ccc(Cl)cc3)c(Nc3ccc4c(c3)OCCO4)n2c1
17 | 832 s | CCn1c(=O)sc2cc(S(=O)(=O)N3CCC(C(=O)NCc4cccs4)CC3)ccc21
18 | 720 s | CCOC(=O)c1c(C)[nH]c(C(=O)N2CCC(CC(=O)NC3CCCC3)CC2)c1C
19 | 750 s | Cc1nc(CC(=O)Nc2ccc(Cl)c(F)c2)sc1C(=O)NC1CC1
20 | 676 s | COc1cccc(Cn2c(C)c(CNCc3ccccn3)c(C(=O)O)c2C)c1
21 | 1200 s | COc1ccc(N2CCN(c3cc(SCC(=O)Nc4cc(Cl)ccc4OC)ncn3)CC2)cc1

Row | RP-LC retention time | SMILES
22 | 705 s | Cc1ccc(C)c(C(=O)NCCc2nc3cccnc3n2C(C)C)c1
23 | 761 s | COc1ccc(CC(=O)N2CCC3(CC2)NC(=O)c2cccc(Cl)c2N3)cc1
24 | 1080 s | Cc1nc(C2(C)CCN(S(=O)(=O)c3ccc(C(C)(C)C)cc3)CC2)no1
25 | 756 s | COc1ccc(-c2nc3ncccn3c2NCc2ccc(C)cc2)cc1
26 | 649 s | Cc1cnc(C(=O)N2CCCCCCNC(=O)[C@@H]3CCC[C@@H]32)cn1
27 | 610 s | CN1C(=O)c2cc(C(=O)NC3CCN(Cc4ccccc4)CC3)nn2CC1(C)C(=O)NC1CCCC1 (stereo not given)
28 | 1010 s | Clc1ccc(-c2nnc(-c3cccnc3N3CCC4(CC3)OCCO4)o2)cc1
29 | 742 s | Cn1nc(CNC(=O)CNC(=O)Cc2ccc(Cl)cc2)c2ccccc21
30 | 570 s | O=C(Nc1ccc(N2CCN(Cc3ccc(F)cc3)C2=O)nc1)c1cccs1
31 | 713 s | Cc1cc(NC(=O)c2ccccc2C(F)(F)F)sn1
32 | 795 s | CC(C)c1ccc(S(=O)(=O)N2CCN(c3cnn4cnnc4c3)CC2)cc1
33 | 579 s | CCCn1cc(-c2ccncc2)cc1C(=O)NC1CC1
34 | 714 s | CC(Cc1ccco1)NC(=O)c1ccc2nc(CCc3ccccc3)oc2c1 (stereo not given)
35 | 626 s | Cn1c(=O)c2c(C(=O)NCC3CCN(Cc4ccc(Cl)cc4)CC3)cc(=O)n(C)c2n(C)c1=O
36 | 831 s | O=C(NC1CCN(C(=O)c2cn(-c3cccc(F)c3)nn2)CC1)c1ccc2ccccc2n1
37 | 720 s | Cc1ccc(-c2nc3n(CC(=O)NCC4CCCO4)c4c(c(=O)n3n2)CCC4)cc1 (stereo not given)
38 | 1280 s | COc1ccc(C)cc1NS(=O)(=O)c1ccccc1-c1nc(-c2ccc(F)cc2)no1
39 | 779 s | COC(=O)CNC(=O)N1CCN(c2nc3ccccc3n(Cc3ccccc3)c2=O)CC1
40 | 850 s | COc1ccc(NC(=O)c2cc3c(=O)oc4ccccc4c3n2C)cc1OC
41 | 635 s | Cc1ccc(F)c2c(=O)c3c([nH]c12)CCN(CC(=O)Nc1ccc(F)c(F)c1)C3
42 | 647 s | Cc1cc(C)c(S(=O)(=O)N2CCCC(C(=O)NCc3ccncc3)C2)c(C)c1 (stereo not given)

Row | RP-LC retention time | SMILES
43 | 978 s | Cc1ccc(C)c(NC(=O)CCCN2C(=O)COc3ccc(C)cc32)c1
44 | 804 s | Cn1cc(-c2ccccc2)cc1C(=O)N1CCOCC1
45 | 589 s | CCCCN(C)C(=O)Cn1c(CO)nc2ccccc21
46 | 889 s | Cc1cccc(CNC(=O)CN2CCN(Cc3ccc(F)cc3Cl)C2=O)c1
47 | 726 s | CCCCN(CCNc1ncnc2onc(-c3ccccc3OC)c12)Cc1ccco1
48 | 838 s | CCC1Oc2ccc(S(=O)(=O)N3CCC(C(=O)NC4CCCCC4)CC3)cc2NC1=O (stereo not given)
49 | 718 s | CN1CCCn2nc(C3CCN(S(=O)(=O)c4ccc5c(c4)OCCO5)CC3)cc2C1=O
50 | 687 s | Cc1cc(=O)n(CC(=O)Nc2ccc(F)c(F)c2)c(N2CCOCC2)n1
51 | 850 s | CCC(=O)N1CCCc2cc(NC(=O)COc3ccc(F)cc3)ccc21
52 | 659 s | Cn1cnc(S(=O)(=O)N2CCC(C(=O)NC3CCCCC3)CC2)c1
53 | 927 s | Cc1c(Cl)cccc1NC(=O)Cn1c(=O)n(-c2ccccc2)c(=O)c2c1cc(C)n2C
54 | 661 s | COCCNC(=O)C1c2cc(OC)c(OC)cc2C(=O)N(C)C1c1ccc(OC)cc1 (stereo not given)
55 | 963 s | CCOc1ccc(S(=O)(=O)NCc2c(-c3ccccc3)nc3sc(CC)nn23)cc1
56 | 734 s | CCc1cc(C(=O)N2CCN(CC(C)C)CC2)nc2cc(-c3ccco3)nn12
57 | 585 s | CCCOc1nccnc1N1CCC(NC(=O)c2ccoc2)C1 (stereo not given)
58 | 1340 s | CCCOc1ccc(-c2noc(Cc3nc(-c4ccccc4)cs3)n2)cc1
59 | 736 s | O=C(c1cn2c(n1)CSCC2)N(Cc1ccccc1)Cc1ccco1
60 | 816 s | Cc1cc2c(cc1S(=O)(=O)N1CCCC1C(=O)NCCCc1ccccc1)OCC(=O)N2 (stereo not given)
61 | 721 s | COc1ccc(OC)c(CNC(=O)[C@@H]2[C@H](c3cc(OC)c(OC)c(OC)c3)c3cc4c(cc3[C@H](O)[C@H]2CO)OCO4)c1
62 | 849 s | Cc1ccc(Cn2nc3c(S(=O)(=O)N4CCOCC4)cccn3c2=O)c(C)c1

Row | SMILES | RP-LC retention time
63 | O=[N+]([O-])c1cc(O)c(O)c([N+](=O)[O-])c1 | 730 s
64 | COc1ccc2c(c1)C1(CCN(C(=O)Cc3ccc(OC)c(Cl)c3)C1)C(=O)N2 (stereo not given) | 745 s
65 | Cc1ncsc1C1N(C2CCN(C(=O)Cn3ccnc3)CC2)C(=O)C12CCCC2 (stereo not given) | 594 s
